In patent US6423109B1, “Free flowing fertilizer composition with enhanced deposition/anti drift characteristics” (Adjuvants Unlimited Inc., priority 2000, dated 2002):

Test: Gel formation (% +50 mesh gel bound)
Type: physicochemical
Details: tap water at 1% dilution

In the case of `N.N.O=S(=O)(O)O` [Ammonium Sulfate (AMS), Ammonium Sulfate], the “% +50 mesh gel bound” value is reported as 0%.
